Laboratory results reported in patent US9464092B2, “Transient protection of normal cells during chemotherapy” (G1 Therapeutics, Inc., priority 2013, dated 2016).

Experiments:
Assay type in all cases: biochemical
CDK4/CyclinD1 = CDK4/CyclinD1 (Homo sapiens (Human), UniProt P11802); test: CDK4/CyclinD1 kinase assay (Nanosyn, Caliper microfluidic); details: Table 2; read-out: CDK4/CycD1 IC50
Method: (§1) Selected compounds disclosed herein were tested in CDK4/cyclinD1, CDK6/CycD3 CDK2/CycA and CDK2/cyclinE kinase assays by Nanosyn (Santa Clara, Calif.) to determine their inhibitory effect on these CDKs. The assays were performed using microfluidic kinase detection technology (Caliper Assay Platform). The compounds were tested in 12-point dose-response format in singlicate at Km for ATP. Phosphoacceptor substrate peptide concentration used was 1 μM for all assays and Staurosporine was used as the reference compound for all assays. Specifics of each assay are as described below:
CDK4/CyclinD1: Enzyme concentration: 1 nM; ATP concentration: 200 μM; Incubation time: 10 hr.

CDK2/CyclinE = CDK2/CyclinE (Homo sapiens (Human), UniProt P24941); test: CDK2/CyclinE kinase assay (Nanosyn, Caliper microfluidic); details: Table 2; for IC50: read-out: CDK2/CycE IC50
Method: as §1, with “assays.” for “assays. Specifics of each assay are as described below:”

CDK2/CyclinA = CDK2/CyclinA (Homo sapiens (Human), UniProt P24941); test: CDK2/CyclinA kinase assay (Nanosyn, Caliper microfluidic); details: Table 2; for IC50: read-out: CDK2/CycA IC50
Method: as §1
CDK2/CyclinA: Enzyme concentration: 0.2 nM; ATP concentration: 50 μM; Incubation time: 3 hr.

Sequence of CDK4/CyclinD1 (P11802 whole entry, species assumed): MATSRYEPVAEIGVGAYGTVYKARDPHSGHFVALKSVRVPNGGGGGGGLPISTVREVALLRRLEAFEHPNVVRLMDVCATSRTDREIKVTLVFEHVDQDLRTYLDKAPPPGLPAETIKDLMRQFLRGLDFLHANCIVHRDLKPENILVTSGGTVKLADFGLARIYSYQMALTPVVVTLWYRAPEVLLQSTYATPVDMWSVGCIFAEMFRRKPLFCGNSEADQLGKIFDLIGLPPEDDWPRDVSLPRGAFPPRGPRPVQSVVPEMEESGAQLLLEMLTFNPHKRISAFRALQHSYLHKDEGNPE
Sequence of CDK4/CyclinD1 (P24385 whole entry partner, species assumed): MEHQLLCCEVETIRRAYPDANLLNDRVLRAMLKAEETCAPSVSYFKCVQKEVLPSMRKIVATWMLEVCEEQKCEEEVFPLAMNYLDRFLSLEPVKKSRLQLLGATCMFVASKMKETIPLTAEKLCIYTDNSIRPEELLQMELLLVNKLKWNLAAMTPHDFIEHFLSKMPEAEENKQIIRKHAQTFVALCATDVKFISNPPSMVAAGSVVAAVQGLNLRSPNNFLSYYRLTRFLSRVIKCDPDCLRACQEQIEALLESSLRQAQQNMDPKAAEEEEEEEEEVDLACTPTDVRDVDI

Structure (SMILES)	IC50 (CDK4/CyclinD1) [nM]	Fold Selectivity (CDK2/CycE/CDK4) (CDK2/CyclinE)	IC50 (CDK2/CyclinE) [nM]	Fold Selectivity (CDK2/CycA/CDK4) (CDK2/CyclinA)	IC50 (CDK2/CyclinA) [nM]
CCC(C)CN1[C@H](C)CN(c2ccc(Nc3ncc4cc5n(c4n3)C3(CCCC3)CNC5=O)nc2)C[C@@H]1C (stereo partly shown) [JJJ]	3.2	1620	5200	882	2830
CCN(CC)C1CCN(c2ccc(Nc3ncc4cc5n(c4n3)C3(CCCC3)CNC5=O)nc2)CC1 [LLL]	3.2	509	1620	1425	4530
CC(C)N1CCN(c2ccc(Nc3ncc4cc5n(c4n3)C3(CCCCC3)CNC5=O)nc2)C[C@H]1C [L]	5.7	789	4530	260	1490
CCOCCN1CCN(c2ccc(Nc3ncc4cc5n(c4n3)C3(CCCC3)CNC5=O)nc2)CC1 [MMM]	3.2	600	1890	314	990
C[C@H]1CN(c2ccc(Nc3ncc4cc5n(c4n3)C3(CCCCC3)CNC5=O)nc2)CCN1CCC(C)(C)C [M]	2.3	1004	2280	621	1410
C[C@@H]1CN(c2ccc(Nc3ncc4cc5n(c4n3)C3(CCCCC3)CNC5=O)nc2)CCN1C [NN]	3.7	1274	4700	423	1560
O=C1NCC2(CCCC2)n2c1cc1cnc(Nc3ccc(C(=O)N4CCN(CC5CC5)CC4)cn3)nc12 [OOO]	2.4	164	393	85	203
CC1CN(c2ccc(Nc3ncc4cc5n(c4n3)C3(CCCCC3)CNC5=O)nc2)C[C@@H](C)N1CC1CC1 (stereo partly shown) [OO]	9	442	3980	63	570
CC(C)N1CCN(c2ccc(Nc3ncc4cc5n(c4n3)C3(CCCCC3)CNC5=O)nc2)CC1C (stereo not shown) [PP]	3.1	1146	3600	984	3090
C[C@@H]1CN(c2ccc(Nc3ncc4cc5n(c4n3)C3(CCCCC3)CNC5=O)nc2)C[C@H](C)N1 [P]	3.3	1085	3560	308	1010
CCN(CC)C1CCN(c2ccc(Nc3ncc4cc5n(c4n3)C3(CCCCC3)CNC5=O)nc2)C1 (stereo not shown) [QQ]	4.1	746	3060	627	2570
O=C1NCC2(CCCC2)n2c1cc1cnc(Nc3ccc(N4CCOCC4)nn3)nc12 [SSS]	2	1112	2280	917	1880
C[C@@H](O)CN1CCN(c2ccc(Nc3ncc4cc5n(c4n3)C3(CCCC3)CNC5=O)nc2)C[C@@H]1C [VV]	3.3	809	2630	243	789
C[C@@H]1CN(c2ccc(Nc3ncc4cc5n(c4n3)C3(CCCCC3)CNC5=O)nc2)CCN1 [V]	2.9	1224	3500	745	2130
CC1CN(c2ccc(Nc3ncc4cc5n(c4n3)C3(CCCCC3)CNC5=O)nc2)CCN1CC(C)(C)O (stereo not shown) [W]	2.7	1481	3970	201	539

Now from value to molecule:

IC50 (CDK4/CyclinD1) [nM]	Fold Selectivity (CDK2/CycE/CDK4) (CDK2/CyclinE)	IC50 (CDK2/CyclinE) [nM]	Fold Selectivity (CDK2/CycA/CDK4) (CDK2/CyclinA)	IC50 (CDK2/CyclinA) [nM]	Structure (SMILES)
2	184	367	120	239	CC(C)N1CCN(C(=O)c2ccc(Nc3ncc4cc5n(c4n3)C3(CCCCC3)CNC5=O)nc2)CC1 [II]
2	1065	2120	568	1130	CC1(C)CN(c2ccc(Nc3ncc4cc5n(c4n3)C3(CCCCC3)CNC5=O)nc2)CCN1 [I]
0.7	7707	5110	6546	4340	C[C@@H]1CN(c2ccc(Nc3ncc4cc5n(c4n3)C3(CCCCC3)CNC5=O)nc2)CCN1C[C@@H](C)O [J]
1.3	231	291	69	87.3	CC(C)(C)CCN1CCN(c2ccc(Nc3ncc4cc5n(c4n3)C3(CCCC3)CNC5=O)nc2)CC1 [KKK]
2.3	762	1760	396	915	C[C@H]1CN(c2ccc(Nc3ncc4cc5n(c4n3)C3(CCCCC3)CNC5=O)nc2)CCN1 [KK]
1	1019	1070	703	738	CC1CCN(C2CCN(c3ccc(Nc4ncc5cc6n(c5n4)C4(CCCCC4)CNC6=O)nc3)CC2)C1 (stereo not shown) [K]
2	103	202	55	108	O=C1NCC2(CCCCC2)n2c1cc1cnc(Nc3ccc(C(=O)N4CCN(C5CCC5)CC4)cn3)nc12 [LL]
1.8	1863	3390	328	597	C[C@@H]1CN(c2ccc(Nc3ncc4cc5n(c4n3)C3(CCCCC3)CNC5=O)nc2)C[C@H](C)N1C[C@@H](C)O [MM]
1.4	2154	2930	743	1010	CC1CN(c2ccc(Nc3ncc4cc5n(c4n3)C3(CCCC3)CNC5=O)nc2)CCN1CC1CC1 (stereo not shown) [NNN]
1.2	1374	1580	603	693	CCN(CC)C1CCN(C2CCN(c3ccc(Nc4ncc5cc6n(c5n4)C4(CCCCC4)CNC6=O)nc3)CC2)C1 (stereo not shown) [RR]
0.5	3918	1920	2776	1360	C[C@H]1CN(c2ccc(Nc3ncc4cc5n(c4n3)C3(CCCCC3)CNC5=O)nc2)CCN1C [R]
0.8	1865	1460	1775	1390	CN(C)C1CCN(c2ccc(Nc3ncc4cc5n(c4n3)C3(CCCCC3)CNC5=O)nn2)CC1 [SS]
1.7	718	1250	197	342	C[C@@H](O)CN1CCN(c2ccc(Nc3ncc4cc5n(c4n3)C3(CCCCC3)CNC5=O)nc2)CC1 [S]
0.8	1550	1260	733	596	CC(C)N1CCN(c2ccc(Nc3ncc4cc5n(c4n3)C3(CCCCC3)CNC5=O)nn2)CC1 [TT]
